In one test the test system is MM.1S cells. Kind of test: MM.1S cell growth inhibition assay (CellTiter Glo, 96 h). The test is classed as cell-based. The note with it: MM.1S multiple myeloma cells. Here is the method:
The cell suspension was pipetted into a 15 mL centrifuge tube, and centrifuged at 800 rpm for 3 minutes. The supernatant was discarded. 2 mL of culture medium was added to the centrifuge tube, and the cells were resuspended evenly by gentle pipetting. The cell density was measure by a hemacytometer. Then the cell suspension was diluted to 50,000 cells/mL. The diluted cell suspension was added to a 96-well cell culture plate (Corning, 3599) in 100 μl/well (in column 1, there was 0.5% DMSO-containing medium in each well, and MM.1S cells were seeded in the remaining 88 wells). The plate was placed in a CO2 incubator overnight.
The compound to be tested was prepared into 10 mM solution in DMSO, and then the compound was prepared into a 2 mM solution in DMSO, which was added to the compound plate, and then it was diluted with DMSO in a 4-fold gradient dilution to be 7 points. 0.5 μL of the compound in the plate of the compound to be tested was pipetted into the cell culture plate (the compound was added to rows A to G, and 0.5 μL of DMSO was added to row H as a control). The final concentrations of the compound were 10000 nM, 2500 nM, 625 nM, 156.25 nM, 39.06 nM, 9.77 nM, 2.44 nM. The plate was returned to the CO2 incubator and incubated for 96 h. Then cell survival was detected by using CellTiter Glo reagent (Promega, Cat. No. G7573, Lot. No. 0000310975). The cell culture plate was taken out and equilibrated to room temperature. 100 μL of CellTiter Glo reagent was added to each well. The plate was shaken for 10 min in the dark, and incubated for 10 min. Then the culture plate was put into a multi-functional microplate reader EnSpire (PerkinElmer) for reading, and detected at 400-700 nm. The reading data were recorded. […] XLFit was used to plot the dose-response inhibition curve (four-parameter model [fit=(A+((B−A)/(1+((C/x)^D))))] and calculate the IC50 values.

For a further test, the system named is MV4-11 cells. Kind of test: Cell growth inhibition assay, MV4-11 (CellTiter-Glo, 72 h). The note with it: Homo sapiens, MV4-11 acute mononuclear leukemia cells. The test is classed as cell-based. Here is the method: After seeding the cells in the plate, the cells were placed in a CO2 incubator (37° C., 5% CO2) and incubated for 1 h. […] After adding the compound, the cells were placed in a CO2 incubator (37° C., 5% CO2) for 72 h. CellTiter-Glo reagent (Promega, G7572) was used to determine cell survival. […] The detection result was analyzed and fitted by GraphPad Prism 5.0 software to give IC50 values.

For test [1], the target named is BRD4_BD1 (49-170) protein (Homo sapiens (Human), UniProt O60885). Put plainly: AlphaScreen assay: inhibition of binding of BRD4 bromodomain BD1 to acetylated histone H4 polypeptide. The note with it: BRD4 BD1 vs acetylated H4 polypeptide, read-out: ALPHA IC50. The text has this: AlphaScreen kit (Perkin Elmer) was used to detect effect of the compounds on binding of BRD4 bromodomain to acetylated histone H4 polypeptide. […] Each of fusion proteins containing (His)6tag can be recognized and bound by Ni^2+. […] The donor microbeads were coated with streptavidin and can bind to biotinylated acetylated H4 polypeptide. The acceptor microbeads were coated with Ni^2+ ions and can bind to the BD1 protein with (His)6tag. When the BD1 protein recognized the acetylated H4 polypeptide, the donor microbeads and the acceptor microbeads can be brought closer to a certain distance. Within this range, the donor microbeads can produce singlet oxygen after being irradiated with a 680 nm excitation light, and transfer the singlet oxygen to the acceptor microbeads. After a series of cascade chemical reactions, the acceptor microbeads will generate an emission wave of 520-620 nm, which in turn can be detected a signal. In this experiment, the test system was 20 μL, and the compound needs to be diluted in buffer 1 (20 mM HEPES pH 7.4, 150 mM NaCl, 1 mM dithiothreitol). First, a solution of 20 mM compound was consecutively diluted twice, each in 10 times, totally in 100 times to a concentration of 200 μM. […] The recombinant BD1 protein solution and the acetylated histone H4 polypeptide were diluted in the buffer 2 (20 mM HEPES pH 7.4, 150 mM NaCl, 0.01% Triton X-100, 0.1% bovine serum protein (w/v, Sigma), 1 mM dithiothreitol) to 100 nM and 100 nM respectively, to obtain a 8×BD1 protein working solution and a 4× acetylated histone H4 polypeptide working solution. The donor microbeads and the acceptor microbeads are diluted together in the buffer 2, both in the ratio of 1:100, to obtain a 2× microbead mixed working solution. The plate was added with 2.5 μL of BD1 protein working solution and incubated with the compound for 20 min at room temperature, and then added with 5 μL of acetylated histone H4 polypeptide working solution and incubated at room temperature for 5 min, and finally added with 10 μL of microbead mixed working solution and incubated at room temperature for 60 min. […] IC50 values of the compounds at different concentrations for inhibiting the binding of BD1 protein to acetylated H4 polypeptide were calculated by fitting using GraphPad Prism 5.0 software.

With `Cc1sc2c(c1C)C(c1ccc(Cl)cc1)=N[C@@H](CC(=O)OC(C)(C)C)c1nnc(C)n1-2` [JQ1, reference compound], the IC50 in the test on MM.1S cells was 181 nM.
In the case of `Cc1cc(-c2cc(NS(C)(=O)=O)ccc2Oc2ccccc2)n2cc[nH]c(=O)c12` [ZB-BD-70], in the test with MV4-11 cells, 33.1 nM corresponded to half-maximal inhibition (IC50).
As for `Cc1cc(-c2cc(NS(C)(=O)=O)ccc2Oc2ccccc2)n2c1C(=O)NCC2` [ZB-BD-74], inhibition with MV4-11 cells was half-maximal at 31.2 nM (IC50).
In the case of `CCS(=O)(=O)Nc1ccc(Oc2ccccc2)c(-c2cc(C)c3c(=O)[nH]ccn23)c1` [ZB-BD-77], the IC50 with MV4-11 cells is 13.4 nM.
Regarding `CCS(=O)(=O)Nc1ccc(Oc2ccc(F)cc2F)c(-c2cc(C)c3c(=O)[nH]ccn23)c1` [ZB-BD-78], the IC50 amounted to 20.4 nM in the test on MV4-11 cells and 52.1 nM in the test on MM.1S cells (Homo sapiens, MM1.S).
`Cc1cc(-c2cc(NS(C)(=O)=O)ccc2Oc2ccc(F)cc2F)n2cc[nH]c(=O)c12` [ZB-BD-80] yielded an IC50 in the test with MV4-11 cells of 29.2 nM.
`Cc1cc(-c2cc(NS(C)(=O)=O)ccc2OCC2CC2)n2cc[nH]c(=O)c12` [ZB-BD-83] gave an IC50 with MV4-11 cells of 131 nM.
In turn, `Cc1cc(-c2cc(CS(C)(=O)=O)ccc2Nc2ccccc2)n2cc[nH]c(=O)c12` [ZB-BD-87] displayed an IC50 in the test on MV4-11 cells of 78.7 nM.
Compound `Cc1cc(-c2cc(CS(C)(=O)=O)ccc2Nc2ccc(F)cc2)n2cc[nH]c(=O)c12` [ZB-BD-90] had an IC50 in the test with MV4-11 cells of 76.6 nM.
In the test on MM.1S cells (Homo sapiens, MM1.S), `Cc1cc(-c2cc(NS(C)(=O)=O)ccc2OC2CCCCC2)n2cc[nH]c(=O)c12` [ZB-BD-92] registered an IC50 of 39.2 nM.
Take `Cc1cc(-c2cc(NS(C)(=O)=O)ccc2Oc2cccnc2)n2cc[nH]c(=O)c12` [ZB-BD-94]: the results for the IC50 (with MV4-11 cells; in test [1]) were 91 nM and 14 nM, respectively.
Regarding `Cc1cc(-c2cc(NS(C)(=O)=O)ccc2OC2CCOCC2)n2cc[nH]c(=O)c12` [ZB-BD-96], in the test with MV4-11 cells, the IC50 is below 100 nM.
As for `Cc1cc(-c2cc(NS(C)(=O)=O)ccc2Oc2ccccc2)n2cn[nH]c(=O)c12` [ZB-BD-102], the IC50 in the test on MV4-11 cells was below 100 nM.
In the test on MV4-11 cells, `Cc1cc(-c2cc(NS(C)(=O)=O)ccc2Oc2ccc(F)cc2F)n2cn[nH]c(=O)c12` [ZB-BD-103] displayed an IC50 below 100 nM.
For `Cc1cc(-c2cc(CS(C)(=O)=O)ccc2Oc2ccc(F)cc2F)n2cc[nH]c(=O)c12` [ZB-BD-112], the IC50 with MM.1S cells (Homo sapiens, MM1.S) is 64.3 nM.
`CCS(=O)(=O)Cc1ccc(Oc2ccc(F)cc2F)c(-c2cc(C)c3c(=O)[nH]ccn23)c1` [ZB-BD-116]: the IC50 in the test on MM.1S cells (Homo sapiens, MM1.S) was determined as 70.3 nM; in test [1], 8.8 nM.
Take `Cc1cc(-c2cc(NS(C)(=O)=O)ccc2Oc2cccnc2)n2cn[nH]c(=O)c12` [ZB-BD-120]: the IC50 in the test with MV4-11 cells is 113 nM; in test [1], 36.6 nM.
As to `Cc1cc(-c2cc(S(C)(=O)=O)ccc2Nc2ccccc2)n2cc[nH]c(=O)c12` [ZB-BD-130], the IC50 in test [1] is 326 nM.
On to `Cc1cc(-c2cc(CS(C)(=O)=O)cnc2Oc2ccc(F)cc2F)n2cc[nH]c(=O)c12` [ZB-BD-147], for which 73.5 nM corresponded to half-maximal inhibition in the test with MM.1S cells (Homo sapiens, MM1.S) (IC50).
Still for that read-out and setting: in the case of `Cc1cc(-c2cc(NS(C)(=O)=O)cnc2OC2CCCCC2)n2cc[nH]c(=O)c12` [ZB-BD-179] it was 53.2 nM.
In the test with MM.1S cells (Homo sapiens, MM1.S), `Cc1cc(-c2cc(CS(C)(=O)=O)ccc2OC2CCCCC2)n2cc[nH]c(=O)c12` [ZB-BD-187] displayed an IC50 of 22.8 nM.
`Cc1cc(-c2cc(CS(C)(=O)=O)cnc2OC2CCCCC2)n2cc[nH]c(=O)c12` [ZB-BD-202] returned an IC50 in the test with MM.1S cells (Homo sapiens, MM1.S) of 25.7 nM.
As to `CCS(=O)(=O)Cc1cnc(Oc2ccc(F)cc2F)c(-c2cc(C)c3c(=O)[nH]ccn23)c1` [ZB-BD-216], the IC50 with MM.1S cells (Homo sapiens, MM1.S) turned out to be 14.2 nM.
`Cc1ccccc1Oc1ccc(NS(C)(=O)=O)cc1-c1cc(C)c2c(=O)[nH]ccn12` [ZB-BD-232] returned an IC50 with MV4-11 cells of 25.4 nM.
`Cc1cccc(C)c1Oc1ccc(NS(C)(=O)=O)cc1-c1cc(C)c2c(=O)[nH]ccn12` [ZB-BD-236]: in the test on MV4-11 cells, it took 48.5 nM to reach half-maximal inhibition (IC50).
Turning to `CCS(=O)(=O)Cc1ccc(Oc2c(C)cccc2C)c(-c2cc(C)c3c(=O)[nH]ccn23)c1` [ZB-BD-237], in the test with MV4-11 cells, the midpoint of inhibition, the IC50, lay at 21.6 nM.
In the case of `CCS(=O)(=O)c1ccc(Oc2c(C)cccc2C)c(-c2cc(C)c3c(=O)[nH]ccn23)c1` [ZB-BD-239], the IC50 in the test with MV4-11 cells amounted to 90.6 nM.
The compound `CCS(=O)(=O)c1ccc(Oc2ccccc2C)c(-c2cc(C)c3c(=O)[nH]ccn23)c1` [ZB-BD-240] registered an IC50 with MV4-11 cells of 5.3 nM.
Consider `CCS(=O)(=O)Cc1cnc(Oc2ccc(F)cc2F)c(-c2cc(C)c3c(=O)[nH]ncn23)c1` [ZB-BD-241], for which the IC50 with MV4-11 cells stood at 7.9 nM; in test [1], 14.3 nM.
